A short description of series [1]: Stability in solution at room temperature, judged by appearance and taste. The conditions noted are these: room temperature (about 50 to 90 degrees F.); judged by appearance (color) and taste. Type of series: physicochemical. The source says:
Without wishing to be bound by theory, it is believed that methyl esters of pyruvic acid are more susceptible to hydrolysis in aqueous solution than are corresponding ethyl esters, which hydrolysis results in the production of pyruvic acid. Pyruvic acid, and the anion thereof, can then react by mechanisms well known in the art, to form a plethora of higher molecular compounds.

Series [2] can be described thus: Gastric reflux (heartburn) in the taste assessment experiment. It counts as in vivo, human. The conditions noted are these: panel of 10 individuals; about 30 ml liquid composition, oral. On the procedure: (§1) A panel of 10 individuals ingested a liquid composition (about 30 ml) at room temperature comprising ethylpyruvate (about 1 weight-percent) to provide a taste assessment. The panel was additionally provided a corresponding liquid composition of methylpyruvate (i.e., methyl ester of pyruvic acid) for comparative tasting. […] Without wishing to be bound by theory, it is believed that the sour taste associated with methylpyruvate results from hydrolysis of methylpyruvate within the sample to pyruvic acid, with the associated source taste of an acid. In contrast, the taste associated with ethylpyruvate appears to reflect a lack of hydrolysis to pyruvic acid in the sample.
In the taste assessment experiment (Example 2), gastric reflux (i.e., “heartburn”) was a considerable problem (i.e., 5 of 10 individuals reporting such) with methylpyruvate, but none reporting similar reaction with ethylpyruvate.

The nature of series [3]: Mood enhancement before and after ingestion in the taste assessment experiment. It counts as in vivo, human. The conditions noted are these: about 1 weight-percent. On the procedure:
as §1
In the taste assessment experiment (Example 2), mood was assessed before and after ingestion of the liquid composition comprising ethylpyruvate. […] This mood enhancement commenced at between 5 and 15 minutes and lasted over 6 hours. In one case, the individual stated that the usual afternoon cup of coffee would not be necessary that day due to the ingestion of the composition.

Series [4] in a line: Post-surgical oral ingestion by a patient with gastrointestinal inflammation. It counts as in vivo, human. The conditions noted are these: about 3x500 mL per day. On the procedure: The patient had developed gastrointestinal inflammation and could not tolerate food by mouth for several days post-operative. Furthermore, bowel movements were frequent, watery and bloody, and were accompanied by lower abdominal pain. The patient self administered oral ethylpyruvate (about 3×500 mL per day daily for 1 week of an ethylpyruvate solution in commercial bottled spring water at 0.06 weight-percent ethylpyruvate). Within 3 hours of the initial dosing, persistent pain, hyperactive bowel and diarrhea resolved. The patient additionally reported an improved mood following oral ingestion of ethylpyruvate.

Series [5] in a line: Athlete oral ingestion before and during daily workouts. It counts as in vivo, human. The conditions noted are these: 12 athletes, 4x500 mL per day, about 0.06 weight-percent in water, four days. As to the method: A group of 12 athletes (19-22 years of age) self-administered oral ethylpyruvate in solution (4×500 mL ingested per day of a solution of about 0.06 weight-percent ethylpyruvate in water) before and during daily workouts (approximately 2 hours duration) for four days. The athletes having ingested oral ethylpyruvate reported less fatigue at the end of each workout, and similar favorable reports continued each day for the four days of practice.

On to `CCOC(=O)C(C)=O` [ethylpyruvate], for which, in series [1], the “stability in solution versus the methyl ester of pyruvic acid” value was “higher stability”. Further, the “individuals reporting gastric reflux (heartburn)” value in series [2] was “none”. Further, the “duration of mood enhancement” value in series [3] (after ingestion of about 30 ml) is on record as “over 6 hours”. Further, the mood after ingestion entry in series [3] (each of 10 individuals, about 30 ml, oral) was “increase in feelings of well-being and energy”. The “time from initial dosing to resolution of persistent pain, hyperactive bowel and diarrhea” value in series [4] (one patient after surgery and radiation for gastrointestinal carcinoma, 0.06 weight-percent in spring water) was at most 3 h. Further, in series [4] (one patient, 0.06 weight-percent, 1 week), the “mood reported by the patient” value was “improved mood”. Also, the “performance in high-activity training regimens (wind sprints) versus sessions prior to ingestion” value in series [5] (each subject) is “better performance”. Further, the “fatigue at the end of each workout” value in series [5] is reported as “less fatigue”.

Source of the values: patent US20100047221A1, “COMPOSITIONS COMPRISING PYRUVATE ALKYL ESTERS AND USES THEREOF” (priority 2006, published 2010).
